Experimental findings from US10829501B2 (BRISTOL-MYERS SQUIBB COMPANY, priority 2016, dated 2020) are described below.

Where a name gives a salt, the structure may show the parent alone.

Chain of ROCK2 (O75116 whole entry, species assumed): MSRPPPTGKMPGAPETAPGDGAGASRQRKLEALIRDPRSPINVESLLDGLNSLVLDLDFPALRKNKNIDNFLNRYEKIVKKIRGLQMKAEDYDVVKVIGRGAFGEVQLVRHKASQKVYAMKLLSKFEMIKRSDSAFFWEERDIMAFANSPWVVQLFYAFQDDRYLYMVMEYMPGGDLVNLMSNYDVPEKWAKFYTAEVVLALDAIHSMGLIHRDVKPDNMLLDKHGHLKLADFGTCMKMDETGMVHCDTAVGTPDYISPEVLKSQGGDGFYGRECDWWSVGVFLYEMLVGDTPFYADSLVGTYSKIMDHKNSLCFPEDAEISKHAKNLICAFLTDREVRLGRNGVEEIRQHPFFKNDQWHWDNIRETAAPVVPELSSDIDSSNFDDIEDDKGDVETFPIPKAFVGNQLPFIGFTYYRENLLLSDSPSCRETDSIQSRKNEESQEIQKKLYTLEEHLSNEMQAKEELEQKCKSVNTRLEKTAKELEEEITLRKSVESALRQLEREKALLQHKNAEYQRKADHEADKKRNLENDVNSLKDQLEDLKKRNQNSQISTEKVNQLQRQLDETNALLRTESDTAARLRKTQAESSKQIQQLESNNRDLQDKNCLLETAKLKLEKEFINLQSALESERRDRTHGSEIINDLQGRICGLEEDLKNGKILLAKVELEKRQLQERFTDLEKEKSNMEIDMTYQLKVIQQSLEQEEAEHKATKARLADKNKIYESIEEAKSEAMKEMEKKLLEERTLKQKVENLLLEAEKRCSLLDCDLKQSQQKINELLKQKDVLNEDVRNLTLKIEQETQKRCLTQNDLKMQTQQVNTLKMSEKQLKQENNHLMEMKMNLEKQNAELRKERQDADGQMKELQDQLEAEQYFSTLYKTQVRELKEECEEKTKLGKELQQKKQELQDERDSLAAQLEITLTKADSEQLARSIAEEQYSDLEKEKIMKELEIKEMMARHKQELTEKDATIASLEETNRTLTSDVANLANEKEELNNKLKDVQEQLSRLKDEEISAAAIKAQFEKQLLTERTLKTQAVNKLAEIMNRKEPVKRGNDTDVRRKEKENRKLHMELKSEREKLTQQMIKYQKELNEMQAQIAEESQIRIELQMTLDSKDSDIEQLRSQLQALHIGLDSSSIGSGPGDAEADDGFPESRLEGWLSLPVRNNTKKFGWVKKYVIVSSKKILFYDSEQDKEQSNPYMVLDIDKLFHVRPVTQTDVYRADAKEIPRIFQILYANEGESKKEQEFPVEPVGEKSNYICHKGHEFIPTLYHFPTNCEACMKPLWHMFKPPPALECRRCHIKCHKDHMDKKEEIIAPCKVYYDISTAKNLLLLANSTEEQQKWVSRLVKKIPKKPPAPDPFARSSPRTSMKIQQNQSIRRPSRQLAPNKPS

The first assay addresses ROCK2 (Homo sapiens, UniProt O75116). The experiment in a line: ROCK2 kinase inhibition assay (LABCHIP 3000 Reader, FITC peptide substrate).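 Further: rho kinase reaction read by separating phosphorylated from unphosphorylated peptide on chip, with inhibition of kinase activity computed per concentration across a dose-response series.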
Details: not given
As for `CC(C)(O)COc1ccc2c(C(=O)NC3CC4(C3)CC(Oc3cc(-c5cccc(S(=O)(=O)NCCO)c5)ccc3C(N)=O)C4)cnn2c1` (stereo not shown) [Example 297, N-(6-((4-carbamoyl-3′-(N-(2-hydroxyethyl)sulfamoyl)-[1,1′-biphenyl]-3-yl)oxy)spiro[3.3]heptan-2-yl)-6-(2-hydroxy-2-methylpropoxy)pyrazolo[1,5-a]pyridine-3-carboxamide], the IC50 was < 5 nM. Same read-out and setting: under `CS(=O)(=O)c1ccccc1-c1cc(C#N)cc(C(=O)N[C@H]2CC3(C2)C[C@H](Oc2ncccc2C(N)=O)C3)c1` (stereo partly drawn) [Example 196, 2-(((aR)-6-(5-cyano-2′-(methylsulfonyl)-[1,1′-biphenyl]-3-ylcarboxamido)spiro[3.3]heptan-2-yl)oxy)nicotinamide] stands < 5 nM; under `[H][C@]1(Oc2ncccc2C(N)=O)C[C@@]2(C[C@H](NC(=O)c3cnn4c(Br)c(OCC(C)(F)F)ccc34)C2)C1` (stereo partly drawn) [Example 307, 7-bromo-N-((aR)-6-((3-carbamoylpyridin-2-yl)oxy)spiro[3.3]heptan-2-yl)-6-(2,2-difluoropropoxy)pyrazolo[1,5-a]pyridine-3-carboxamide], 5 to 50 nM. On the same count and under the same terms, the result for `[H][C@]1(Oc2ncccc2C(N)=O)C[C@@]2(C[C@H](NC(=O)c3nn(C(C)(C)C#N)c4cc(OCCC(F)(F)F)ccc34)C2)C1` (stereo partly drawn) [Example 411, N-((aR)-6-((3-carbamoylpyridin-2-yl)oxy)spiro[3.3]heptan-2-yl)-1-(2-cyanopropan-2-yl)-6-(3,3,3-trifluoropropoxy)-1H-indazole-3-carboxamide, TFA] reads 5 to 50 nM; that for `CC(C)(O)COc1ccc2c(C(=O)NC3CC4(C3)CC(Oc3cc(Br)ccc3C(N)=O)C4)cnn2c1` (stereo not shown) [Example 272, N-(6-(5-bromo-2-carbamoylphenoxy)spiro[3.3]heptan-2-yl)-6-(2-hydroxy-2-methylpropoxy)pyrazolo[1,5-a]pyridine-3-carboxamide], < 5 nM; that for `[2H]C([2H])([2H])n1cc(-c2ccc3c(C(=O)N[C@H]4CC5(C4)C[C@H](Oc4ncccc4C(N)=O)C5)nnn3c2)cn1` (stereo partly drawn) [Example 363, N-((aR)-6-((3-carbamoylpyridin-2-yl)oxy)spiro[3.3]heptan-2-yl)-6-(1-(^2H3)methyl-1H-pyrazol-4-yl)-[1,2,3]triazolo[1,5-a]pyridine-3-carboxamide], < 5 nM.

As for `Cn1c(C(=O)N[C@H]2CC3(C2)C[C@H](Oc2ncccc2C(N)=O)C3)cc2ccccc21` (stereo partly drawn) [Example 70, N-((aR)-6-((3-carbamoylpyridin-2-yl)oxy)spiro[3.3]heptan-2-yl)-1-methyl-1H-indole-2-carboxamide, trifluoroacetate], the IC50 lay within 50 to 250 nM.

For the molecule `CC(C)(C)c1ccnc(C(=O)N[C@H]2CC3(C2)C[C@H](Oc2ncccc2C(N)=O)C3)c1` (stereo partly drawn) [Example 110, 4-(tert-butyl)-N-((aR)-6-((3-carbamoylpyridin-2-yl)oxy)spiro[3.3]heptan-2-yl)picolinamide, bis-trifluoroacetate], the IC50 lay in the range of 5 to 50 nM.

`CC(C)(C)c1cc(C(=O)N[C@H]2CC3(C2)C[C@H](Oc2ncccc2C(N)=O)C3)n(CCC(F)(F)F)n1` (stereo partly drawn) [Example 114, 2-((aR)-6-(3-(tert-butyl)-1-(3,3,3-trifluoropropyl)-1H-pyrazole-5-carboxamido)spiro [3.3]heptan-2-yl)oxy) nicotinamide, trifluoroacetate] displayed an IC50 of 250 to 2500 nM. On the same count and under the same terms, the result for `CN1CCN(c2ccn3c(C(=O)N[C@H]4CC5(C4)C[C@H](Oc4ncccc4C(N)=O)C5)cnc3c2)CC1` (stereo partly drawn) [Example 336, N-((aR)-6-((3-carbamoylpyridin-2-yl)oxy)spiro[3.3]heptan-2-yl)-7-(4-methylpiperazin-1-yl)imidazo[1,2-a]pyridine-3-carboxamide] reads 5 to 50 nM; that for `NC(=O)c1cccnc1O[C@H]1CC2(C[C@H](NC(=O)c3cccc(Cn4ccnc4)c3)C2)C1` (stereo partly drawn) [Example 141, 2-(((aR)-6-(3-((1H-imidazol-1-yl)methyl)benzamido)spiro[3.3]heptan-2-yl)oxy) nicotinamide, trifluoroacetate], 250 to 2500 nM; that for `Cn1nc(C(=O)N[C@H]2CC3(C2)C[C@H](Oc2ncccc2C(N)=O)C3)c2ccccc21` (stereo partly shown) [Example 66], 5 to 50 nM.

Consider `[H][C@]1(Oc2ncccc2C(N)=O)C[C@@]2(C[C@H](NC(=O)c3nn(CC(C)(C)O)c4ccc(-c5cnn(C)c5)cc34)C2)C1` (stereo partly drawn) [Example 50, N-((aR)-6-((3-carbamoylpyridin-2-yl)oxy)spiro[3.3]heptan-2-yl)-1-(2-hydroxy-2-methylpropyl)-5-(1-methyl-1H-pyrazol-4-yl)-1H-indazole-3-carboxamide], for which the IC50 is 5 to 50 nM. The same measure, in the same setting: under `NC(=O)c1cccnc1O[C@H]1CC2(C[C@H](NC(=O)c3cnc4cc(NCC(F)F)ccn34)C2)C1` (stereo partly drawn) [Example 358, N-((aR)-6-((3-carbamoylpyridin-2-yl)oxy)spiro[3.3]heptan-2-yl)-7-((2,2-difluoroethyl)amino)imidazo[1,2-a]pyridine-3-carboxamide] stands 5 to 50 nM.

In the case of `[H][C@]1(Oc2ncccc2C(N)=O)C[C@@]2(C[C@H](NC(=O)c3cnc4cc(-c5ccc(=O)n(C)c5)ccn34)C2)C1` (stereo partly drawn) [Example 370, N-((aR)-6-((3-carbamoylpyridin-2-yl)oxy)spiro[3.3]heptan-2-yl)-7-(1-methyl-6-oxo-1,6-dihydropyridin-3-yl)imidazo[1,2-a]pyridine-3-carboxamide], the IC50 is < 5 nM. `[H][C@]1(Oc2ncccc2C(N)=O)C[C@@]2(C[C@H](NC(=O)c3nn(C(C)(C)C(N)=O)c4cc(OCCC(F)(F)F)ccc34)C2)C1` (stereo partly drawn) [Example 410, 1-(1-amino-2-methyl-1-oxopropan-2-yl)-N-((aR)-6-((3-carbamoylpyridin-2-yl)oxy)spiro[3.3]heptan-2-yl)-6-(3,3,3-trifluoropropoxy)-1H-indazole-3-carboxamide, TFA] gave a 50% inhibitory concentration (IC50) of 5 to 50 nM. Still for that read-out and setting: under `CC(C)(O)COc1ccc2c(C(=O)NC3CC4(C3)CC(Oc3cc(-c5ccccc5C(F)(F)F)ccc3C(N)=O)C4)cnn2c1` (stereo not shown) [Example 228, N-(6-((4-carbamoyl-2′-(trifluoromethyl)-[1,1′-biphenyl]-3-yl)oxy)spiro[3.3]heptan-2-yl)-6-(2-hydroxy-2-methylpropoxy)pyrazolo[1,5-a]pyridine-3-carboxamide] stands 50 to 250 nM. Regarding `[H][C@]1(Oc2ncccc2C(N)=O)C[C@@]2(C[C@H](NC(=O)c3nn(CC(C)(C)O)c4cc(-c5cnn(C)c5)ccc34)C2)C1` (stereo partly drawn) [Example 46, N-((aR)-6-((3-carbamoylpyridin-2-yl)oxy)spiro[3.3]heptan-2-yl)-1-(2-hydroxy-2-methylpropyl)-6-(1-methyl-1H-pyrazol-4-yl)-1H-indazole-3-carboxamide], the IC50 was < 5 nM.

On to `CC(C)(O)COc1ccc2c(C(=O)NC3CC4(C3)CC(Oc3cc(N5CC(N)C5)ccc3C(N)=O)C4)cnn2c1` (stereo not shown) [Example 260, N-(6-(5-(3-aminoazetidin-1-yl)-2-carbamoylphenoxy)spiro[3.3]heptan-2-yl)-6-(2-hydroxy-2-methylpropoxy)pyrazolo[1,5-a]pyridine-3-carboxamide, TFA], for which the IC50 fell in the range of 5 to 50 nM. Still for that read-out and setting: the result for `Cn1nc(C(=O)N[C@H]2CC3(C2)C[C@H](Oc2ncccc2C(N)=O)C3)cc1OCC(F)F` (stereo partly drawn) [Example 95, 2-((aR)-6-(5-(2,2-difluoroethoxy)-1-methyl-1H-pyrazole-3-carboxamido)spiro-[3.3]heptan-2-yl)oxy) nicotinamide, trifluoroacetate] reads 50 to 250 nM. Same read-out and setting: under `C[C@H](O)COc1ccc2c(C(=O)N[C@H]3CC4(C3)C[C@H](Oc3ncccc3C(N)=O)C4)cnn2c1` (stereo partly drawn) [Example 333, N-((aR)-6-((3-carbamoylpyridin-2-yl)oxy)spiro[3.3]heptan-2-yl)-6-((S)-2-hydroxypropoxy)pyrazolo[1,5-a]pyridine-3-carboxamide] stands 5 to 50 nM; under `CC(C)(O)COc1ccc2c(C(=O)NC3CC4(C3)CC(Oc3cc(-n5ccnc5)ccc3C(N)=O)C4)cnn2c1` (stereo not shown) [Example 221], 50 to 250 nM. The same measure, in the same setting: under `CN(C)Cc1nc(C(=O)N[C@H]2CC3(C2)C[C@H](Oc2ncccc2C(N)=O)C3)c2ccc(OCc3ccccc3)cn12` (stereo partly drawn) [Example 416, 6-(benzyloxy)-N-((aR)-6-((3-carbamoylpyridin-2-yl)oxy)spiro[3.3]heptan-2-yl)-3-((dimethylamino)melhyl)imidazo[1,5-a]pyridine-1-carboxamide, TFA] stands 5 to 50 nM; under `NC(=O)c1cccnc1OC1CC2(CC(NC(=O)c3cnn4cc(OC5CCOCC5)ccc34)C2)C1` (stereo not shown) [Example 11, N-(6-((3-carbamoylpyridin-2-yl)oxy)spiro[3.3]heptan-2-yl)-6-((tetrahydro-2H-pyran-4-yl)oxy)pyrazolo[1,5-a]pyridine-3-carboxamide], 5 to 50 nM.

The same assay, now with this note: read-out: ROCK2 Activity (ROCK2 IC50); 5 μM ATP, 1.5 μM peptide substrate, pH 7.5.
In the case of `Cc1nn(C)cc1-c1ccc2c(C(=O)NC3CC4(C3)CC(Oc3ncccc3C(N)=O)C4)nc(C(F)F)n2c1` [Example 445, N-((aR)-6-((3-carbamoylpyridin-2-yl)oxy)spiro[3.3]heptan-2-yl)-3-(difluoromethyl)-6-(1,3-dimethyl-1H-pyrazol-4-yl)imidazo[1,5-a]pyridine-1-carboxamide], the IC50 was < 5 nM. For `Cn1cc(-c2ccc3c(C(=O)NC4CC5(C4)CC(Oc4ncccc4C(N)=O)C5)nc(C(F)(F)F)n3c2)cn1` [Example 433, N-((aR)-6-((3-carbamoylpyridin-2-yl)oxy)spiro[3.3]heptan-2-yl)-6-(1-methyl-1H-pyrazol-4-yl)-3-(trifluoromethyl)imidazo[1,5-a]pyridine-1-carboxamide], the IC50 is < 5 nM. On the same count and under the same terms, under `Cc1c(C(=O)NC2CC3(C2)CC(Oc2ncccc2C(N)=O)C3)cnn1-c1ccc(OC(F)(F)F)cc1` [Example 386, N-[(aR)2-[(6-{5-methyl-1-[4-(trifluoromethoxy)phenyl]-1H-pyrazole-4-amido}spiro[3.3]heptan-2-yl)oxy]pyridine-3-carboxamide 1 trifluoroacetic acid salt] stands 5 to 50 nM. Same read-out and setting: under `CC(C)(O)CNc1ccc2c(C(=O)NC3CC4(C3)CC(Oc3ncccc3C(N)=O)C4)nc(C(F)F)n2c1` [Example 442, N-((aR)-6-((3-carbamoylpyridin-2-yl)oxy)spiro[3.3]heptan-2-yl)-3-(difluoromethyl)-6-((2-hydroxy-2-methylpropyl)amino)imidazo[1,5-a]pyridine-1-carboxamide] stands 250 to 2500 nM.
